# Source: patent US20240216401A1, “COMBINATION THERAPY BY USING AKR1C3-ACTIVATED COMPOUND WITH IMMUNE CHECKPOINT INHIBITOR” (OBI Pharma, Inc., priority 2021, published 2024)
# Where “and” joins values, the source holds several entries; their conditions need not be identical. Equal values may be shown once.
# Legend:
# Assay type in all cases: in vivo, Mus musculus
# [1] = system: HepG2 tumor; experiment: Example 1: tumor volume, tumor weight and TGI in HepG2 tumor bearing humanized mice
# Description: (§1) Each group contains five mice. The human hepatocellular carcinoma cell line HepG2 were subcutaneously inoculated to the advanced immune deficiency mice. Total of 30 mice were included in this study.
# 2.2. […] The subcutaneous injection volume was […].
# (§2) 3.1. […] The injection was performed using insulin syringe with the dosage of 10 mg/kg (Dosage of injection was changed to 20 mg/kg from Day 15) and injection volume of 10 mL/kg. […] The reference item was administered for G1. The procedure followed the standards of sample administration.
# (§3) 3.2. The test item anti-hPD-L1 antibody or reference items were intraperitoneally injected to the mice on Day 8 after the inoculation of tumor cells. The injection was performed using insulin syringe with the dosage of 10 mg/kg (Dosage of injection was changed to 20 mg/kg from Day 15) and injection volume of 10 mL/kg. The test item anti-hPD-L1 was continuously administered on Day 8, 11, 15, 18, 22, 25, 29 and 32 for G4 and G6. The reference item was administered for G1. The procedure followed the standards of sample administration.
# (§4) 3.3. […] The injection was performed using insulin syringe with the dosage of 1 mg/kg and injection volume of 5 mL/kg. […] The reference item was administered for G1. The procedure followed the standards of sample administration.
# The measurement was performed from the next day of the inoculation. The tumor volumes were measured and recorded twice a week (Mon., Thur.). Tumor volume was calculated by ellipsoid equation according to the records ((major axis×minor axis×minor axis)×(π/6)).
# Tumor volumes were used to calculate tumor growth inhibition (TGI) rates according to the following formula: TGI (%)=[1−(Ti−T0)/(Ci−C0)]×100, where Ti and Ci indicate the mean tumor volume in the treatment groups and vehicle group at the end of the experiment (Day 35). Whereas, T0 and C0 indicate the mean tumor volumes in the treatment group and vehicle group at the beginning of the experiment (Day 1).
# (§5) Mice were sacrificed by CO2 euthanasia at the end of the study duration, and the connective tissue around tumor was resected. The tumor samples were then removed and weighed. The half tissue was fixed in 10% formaldehyde and then embedded in paraffin; the other half was prepared for the isolation of tumor-infiltrating lymphocytes (TILs).
# [2] = Example 1: body weight and mortality of HepG2 tumor bearing humanized mice; conditions: OBI-3424 1 mg/kg IV, antibody 10 mg/kg IP (20 from Day 15)
# Description: as §1, §2, §3, §4
# The measurement was performed from the next day of the inoculation. The animal body weights were measured and recorded twice per week.
# [3] = system: CD8^+ cytotoxic T cells (CTL) in tumor-infiltrating lymphocytes; experiment: Example 1: flow cytometry, percentage of CTL cells in TILs
# Description: as §5
# (§6) The half of mouse tumors were dissected into smaller fragments using scalpels and then digested with a cocktail of collagenase, DNase I, and Hyaluronidase (Collagenase #C5138, DNase I #D5025, Hyaluronidase #H6254, SigmaAldrich) for at least 2 hours.
# (§7) Cells were stained with the fluorescently conjugated surface antibodies and incubated for 30 minutes at 4° C., and then resuspended in staining buffer for flow cytometric analysis. Flow cytometry was done using a Navios EX Flow Cytometer (Beckman Coulter). Data were analyzed using the Kaluza Analysis Software (Beckman Coulter).
# [4] = system: CD4^+ T helper cells in tumor-infiltrating lymphocytes; experiment: Example 1: flow cytometry, percentage of TH cells in TILs; conditions: individual mice
# Description: as §5, §6, §7
# [5] = system: NK cells in tumor-infiltrating lymphocytes; experiment: Example 1: flow cytometry, percentage of NK cells in TILs; conditions: individual mice
# Description: as §5, §6, §7
# [6] = system: PD-L1^+ cells in tumor-infiltrating lymphocytes; experiment: Example 1: flow cytometry, percentage of PD-L1 cells in TILs; conditions: individual animal
# Description: as §5, §6, §7
# [7] = TILs, flow cytometer, individual mice
# [8] = TILs, gate CD45^+CD8^+ cells, individual mice
substance,measurement,setting,value
"anti-hPD-1: Anti-Human PD-1 antibody, Pembrolizumab, Merck & Co., Inc.","Tumor volume, Mean","[1]; D 1, group mean, OBI-3424 1 mg/kg IV, antibody 10 mg/kg IP (20 from Day 15)",354.80 mm^3
same,"Tumor volume, Mean","[1]; D 4, group mean, OBI-3424 1 mg/kg IV, antibody 10 mg/kg IP (20 from Day 15)",269.37 mm^3
same,"Tumor volume, Mean","[1]; D 7, group mean, OBI-3424 1 mg/kg IV, antibody 10 mg/kg IP (20 from Day 15)",301.61 mm^3
same,"Tumor volume, Mean","[1]; D 11, group mean, OBI-3424 1 mg/kg IV, antibody 10 mg/kg IP (20 from Day 15)",339.50 mm^3
same,"Tumor volume, Mean","[1]; D 14, group mean, OBI-3424 1 mg/kg IV, antibody 10 mg/kg IP (20 from Day 15)",393.76 mm^3
same,"Tumor volume, Mean","[1]; D 18, group mean, OBI-3424 1 mg/kg IV, antibody 10 mg/kg IP (20 from Day 15)",735.09 mm^3
same,"Tumor volume, Mean","[1]; D 21, group mean, OBI-3424 1 mg/kg IV, antibody 10 mg/kg IP (20 from Day 15)",880.07 mm^3
same,"Tumor volume, Mean","[1]; D 25, group mean, OBI-3424 1 mg/kg IV, antibody 10 mg/kg IP (20 from Day 15)",947.95 mm^3
same,"Tumor volume, Mean","[1]; D 28, group mean, OBI-3424 1 mg/kg IV, antibody 10 mg/kg IP (20 from Day 15)",1171.03 mm^3
same,"Tumor volume, Mean","[1]; D 32, group mean, OBI-3424 1 mg/kg IV, antibody 10 mg/kg IP (20 from Day 15)",1366.17 mm^3
same,"Tumor volume, Mean","[1]; D 35, group mean (mean±SEM), OBI-3424 1 mg/kg IV, antibody 10 mg/kg IP (20 from Day 15)",1613.37±338.07 mm^3 and 1613.37 mm^3
same,"Tumor weight, Mean","[1]; D 35, group mean, OBI-3424 1 mg/kg IV, antibody 10 mg/kg IP (20 from Day 15)",1266.48 mg
same,mean tumor volume compared with vehicle (in words),"[1]; Day 35, vs vehicle (G1), Student's t-test",No statistically significant difference
same,effect on tumor growth (conclusion in words),[1]; HepG2 humanized mouse model,no effect on tumor growth
same,TGI,"[1]; from mean tumor volumes Day 35 vs Day 1, relative to vehicle, OBI-3424 1 mg/kg IV, antibody 10 mg/kg IP (20 from Day 15)",−9.69%
same,"Body Weight, Mean","[2]; Day 0, group mean",22.84 g
same,"Body Weight, Mean","[2]; Day 1, group mean",22.47 g
same,"Body Weight, Mean","[2]; Day 4, group mean",23.47 g
same,"Body Weight, Mean","[2]; Day 7, group mean",23.48 g
same,"Body Weight, Mean","[2]; Day 11, group mean",23.90 g
same,"Body Weight, Mean","[2]; Day 14, group mean",23.94 g
same,"Body Weight, Mean","[2]; Day 18, group mean",24.30 g
same,"Body Weight, Mean","[2]; Day 21, group mean",23.59 g
same,"Body Weight, Mean","[2]; Day 25, group mean",23.42 g
same,"Body Weight, Mean","[2]; Day 28, group mean",22.52 g
same,"Body Weight, Mean","[2]; Day 32, group mean",22.55 g
same,"Body Weight, Mean","[2]; Day 35, group mean",22.77 g
same,CD8^+ cytotoxic T cells (CTL) population in tumors compared with vehicle (in words),"[3]; Example 1, TILs at sacrifice, flow cytometry",not observed
same,CD25^+ CTL cells (CD45^+CD8^+ CD25^+) Total %,[3]; [7],0.26% and 0.10% and 0.65% and 0.84% and 0.41%
same,CTL cells (CD45^+CD8^+) Total %,[3]; [7],9.30% and 6.22% and 21.30% and 11.17% and 24.91%
same,PD-1^+ CTL cells (CD45^+CD8^+ PD-1^+) Total %,[3]; [7],10.83% and 9.53% and 15.71% and 10.88% and 14.41%
same,CTL cells (CD45^+CD8^+) CD45^+ Gated %,"[3]; TILs, gate CD45^+ cells, individual mice",36.10% and 34.75% and 75.47% and 53.85% and 55.75%
same,CD25^+ CTL cells (CD45^+CD8^+ CD25^+) CTL Gated %,[3]; [8],2.80% and 1.53% and 3.05% and 7.48% and 1.65%
same,PD-1^+ CTL cells (CD45^+CD8^+ PD-1^+) CTL Gated %,[3]; [8],89.36% and 84.37% and 66.70% and 66.59% and 57.38%
same,CD25^+ CTL cells (CD45^+CD8^+ CD25^+) Cell count,"[3]; TILs, individual mice",0.79 ×10^5 and 0.35 ×10^5 and 0.62 ×10^5 and 1.08 ×10^5 and 0.28 ×10^5
same,CTL cells (CD45^+CD8^+) Cell count,"[3]; TILs, individual mice",28.27 ×10^5 and 21.83 ×10^5 and 20.30 ×10^5 and 14.41 ×10^5 and 16.91 ×10^5
same,PD-1^+ CTL cells (CD45^+CD8^+ PD-1^+) Cell count,"[3]; TILs, individual mice",32.92 ×10^5 and 33.45 ×10^5 and 14.97 ×10^5 and 14.04 ×10^5 and 9.78 ×10^5
same,CD25^+ TH cells (CD45^+CD4^+ CD25^+) Total %,[4]; flow cytometer,0.71% and 0.67% and 0.82% and 1.28% and 0.45%
same,PD-1^+ TH cells (CD45^+CD4^+ PD-1^+) Total %,[4]; flow cytometer,20.78% and 11.99% and 9.21% and 11.61% and 15.49%
same,TH cells (CD45^+CD4^+) Total %,[4]; flow cytometer,19.18% and 11.07% and 9.76% and 11.17% and 18.23%
same,TH cells (CD45^+CD4^+) CD45^+ Gated %,[4]; gate CD45^+ cells,74.49% and 61.90% and 34.59% and 53.85% and 40.81%
same,CD25^+ TH cells (CD45^+CD4^+CD25^+) TH Gated %,[4]; gate CD45^+CD4^+ cells,3.70% and 6.05% and 8.35% and 11.42% and 2.44%
same,PD-1^+ TH cells (CD45^+CD4^+ PD-1^+) TH Gated %,[4]; gate CD45^+CD4^+ cells,96.11% and 90.08% and 83.23% and 82.55% and 85.27%
same,CD25^+ TH cells (CD45^+CD4^+ CD25^+) Cell count,[4],2.16 ×10^5 and 2.35 ×10^5 and 0.78 ×10^5 and 1.65 ×10^5 and 0.31 ×10^5
same,PD-1^+ TH cells (CD45^+CD4^+ PD-1^+) Cell count,[4],63.17 ×10^5 and 42.08 ×10^5 and 8.78 ×10^5 and 14.98 ×10^5 and 10.52 ×10^5
same,TH cells (CD45^+CD4^+) Cell count,[4],58.31 ×10^5 and 38.86 ×10^5 and 9.30 ×10^5 and 14.41 ×10^5 and 12.38 ×10^5
same,CD16^+ NK cells (CD45^+CD56^+ CD16^+) Total %,[5]; flow cytometer,0.41% and 0.32% (2×) and 0.44% and 0.79%
same,NK cells (CD45^+CD56^+) Total %,[5]; flow cytometer,2.91% and 1.08% and 3.01% and 1.93% and 4.76%
same,PD-1^+ NK cells (CD45^+CD56^+PD-1^+) Total %,[5]; flow cytometer,2.67% and 1.13% and 2.36% and 1.46% and 1.78%
same,NK cells (CD45^+CD56^+) CD45^+ Gated %,[5]; gate CD45^+ cells,12.27% and 6.34% and 12.96% and 9.57% and 12.69%
same,CD16^+ NK cells (CD45^+CD56^+ CD16^+) NK Gated %,[5]; gate CD45^+CD56^+ cells,13.94% and 29.77% and 14.48% and 16.58% and 16.61%
same,PD-1^+ NK cells (CD45^+CD56^+PD-1^+) NK Gated %,[5]; gate CD45^+CD56^+ cells,99.81% and 100.00% and 87.08% and 98.31% and 64.90%
same,CD16^+ NK cells (CD45^+CD56^+ CD16^+) Cell count,[5],1.25 ×10^5 and 1.12 ×10^5 and 0.42 ×10^5 and 0.41 ×10^5 and 0.54 ×10^5
same,NK cells (CD45^+CD56^+) Cell count,[5],8.85 ×10^5 and 3.79 ×10^5 and 2.87 ×10^5 and 2.49 ×10^5 and 3.23 ×10^5
same,PD-1^+ NK cells (CD45^+CD56^+PD-1^+) Cell count,[5],8.12 ×10^5 and 3.97 ×10^5 and 2.25 ×10^5 and 1.88 ×10^5 and 1.21 ×10^5
same,CD45^+ cells Cell count (×10^6),[6],7.83 ×10^6 and 6.28 ×10^6 and 2.69 ×10^6 and 2.68 ×10^6 and 3.03 ×10^6
same,CD45^+ cells Gated %,[6],41.15% and 30.42% and 47.95% and 36.87% and 63.31%
same,CD45^+ cells Total %,[6],25.75% and 17.89% and 28.22% and 20.74% and 44.68%
same,Total PD-L1^+ cells (PD-L1^+) Cell count (×10^5),[6],10.55 ×10^5 and 13.65 ×10^5 and 2.38 ×10^5 and 7.80 ×10^5 and 4.22 ×10^5
same,"Total PD-L1^+ cells (PD-L1^+), Total %",[6],3.47% and 3.89% and 2.50% and 6.05% and 6.21%
same,"Total PD-L1^+ cells (PD-L1^+), Total cells Gated %",[6],6.45% and 7.52% and 3.68% and 7.83% and 6.95%
same,Total cells Cell count (×10^6),[6],16.37 ×10^6 and 18.15 ×10^6 and 6.47 ×10^6 and 9.97 ×10^6 and 6.06 ×10^6
same,Total cells Gated %,[6],53.84% and 51.71% and 67.88% and 77.26% and 89.23%
same,Total cells Total %,[6],53.84% and 51.71% and 67.88% and 77.26% and 89.23%
